Here are results for 2 compounds from US20020115728A1, “Compositions and methods for treating cardiovascular disorders” (priority 2000, published 2002).

Data set [1] in a line: Plasma drug level of bisphenol. The data set is classed as in vivo, mice. To be noted: for concentration at 14 weeks: male, apoE−/−;LDLr−/−, mouse, plasma, oral, 0.03 % (w/w) in chow, mice ranked by plasma drug level. As for the experimental part: Male apoE−/−;LDLr−/− mice (59 total), were maintained on standard R3 chow from weaning to 8 weeks of age (young controls, n=9). Thereafter mice received R3 chow with (n=25) or without supplemented bisphenol (n=25) for an additional 14 weeks. Standard R3-mouse chow was fortified with bisphenol at 0.03% (w/w), a level of supplementation shown in pilot experiments to afford circulating concentrations of the drug of ˜200 μM, considered suitable to test the effect of the co-antioxidant on atherogenesis in this animal model. At 22 weeks of age 10 and 15 mice of each group were used for biochemical and histological analyses, respectively. Due to the small size, it was necessary to pool aortas to yield sufficient material for biochemical analyses.
Analyses of oxidised and non-oxidised lipids were carried out by RP-HPLC as described in Example 1 except that in some instances UV234 nm rather than post-column chemiluminescence detection was used to measure C18:2-OOH and the corresponding hydroxides (together referred to as CE-O(O)H) which show similar retention times under these chromatographic conditions. α-TQ, α-TOH, α-tocotrienol, D-isosascorbate and ascorbate were determined by HPLC with electrochemical detection. For oxidation of plasma, unesterified cholesterol (which remained non-oxidised in these experiments) was employed as internal standard for all polyunsaturated, lipid-soluble components analysed. Bisphenol and diphenoquinone were analysed by RP-HPLC: flow 1.5 mL/min, 100% solvent A (MeCN/MeOH/H20 10:10:3, v/v/v) for 0-15 min monitored at 270 nm, followed by 50% solvent A and B (MeCN/MeOH 1:1, v/v) for 15-22 min at 242 nm and then 100% B for 22-28 min at 420 nm. Bisphenol and diphenoquinone eluted at 9 and 27 min, respectively. All compounds were quantified by peak area comparison with authentic standards. […]
Unless otherwise stated lipid and antioxidant levels are expressed as pmol/mg protein. LH, lipid containing bisallylic hydrogens. §Values are expressed as nmol/mg protein. […]

The nature of data set [2]: Probucol and metabolite levels in aorta and plasma. The data set is classed as in vivo. The note with it: apoE−/− mice, 1% probucol, 24 weeks. The protocol:
Male C57BL/6J mice, homozygous for the disrupted apoE gene (apoE−/−) were fed standard chow (Lab-Feed, Sydney, Australia) until aged 10 weeks.
Lipid-soluble antioxidants and lipids were quantified by HPLC as described in FASEB J. 1999;13:667-675. For ascorbate analysis, frozen acidified samples were thawed, diluted with DPBS to adjust the pH to 7.4 and then immediately subjected to HPLC. Plasma triglycerides were determined enzymatically (Boehringer, Mannheim, Germany).
Pooled aortas were snap frozen in liquid nitrogen, pulverised, resuspended in Buffer A, homogenised and then either treated with metaphosphoric acid (for ascorbate) or extracted and the hexane fraction analysed for lipid-soluble antioxidants, cholesterol (C), choleseteryl esters (CE), lipid hydroperoxides (LOOH) and cholesteryl ester hydroxides (CE-OH) by HPLC as described in Methods Enzymol. 1994;233:469-489. LOOH and CE-OH were measured as markers of lipoprotein lipid oxidation, as they are the primary and major oxidation products formed when lipoproteins from apoE−/− mice undergo oxidation. […] All compounds were quantified by peak area comparison with authentic standards, and protein determined.

The test system of data set [3] is atherosclerotic lesions in apoE−/− mice. Description: Atherosclerotic lesion cross-section areas at four aortic sites (morphometry). The data set is classed as in vivo. The protocol: Male C57BL/6J mice, homozygous for the disrupted apoE gene (apoE−/−) were fed standard chow (Lab-Feed, Sydney, Australia) until aged 10 weeks. […] The high fat diet (control and probucol-supplemented) was prepared, according to the specifications of the Harlan Teklad diet TD88137. […]
Lesions were assessed at four different sites along the aorta, in the aortic root, in the aortic arch, the descending thoracic and in the proximal abdominal aorta, and cross-sections (2-3 μm thick) were prepared and stained with Weigert's hematoxylin-van Gieson.

Data set [4] relates to plasma lipoproteins of apoE−/− mice. Description: Lipids and antioxidants in lipoprotein fractions (size exclusion FPLC of pooled plasma). The data set is classed as in vivo. On the set-up: VLDL C / VLDL C18:2 / VLDL -TOH / VLDL Total CoQ / LDL C / LDL C18:2 / LDL -TOH / LDL Total CoQ / HDL C / HDL C18:2 / HDL -TOH / HDL Total CoQ: unit not given here. The note with it: 24 weeks. The protocol: Plasma was obtained from control and probucol mice and aliquots frozen for subsequent determination of lipids. Separate aliquots were acidified with metaphosphoric acid (5%) to stabilize vitamin C prior to freezing and storage at −80° C. The remainder was pooled appropriately and used for ex vivo oxidation initiated by the peroxyl radical generator AAPH and lipoprotein separation by FPLC with UV280nm detection, as described in J Lipid Res. 1999;40:1104-1112.
Two consecutive separations each employing 300 μL undiluted plasma were carried out. The corresponding eluents from both injections were collected, pooled according to fractions corresponding to very low-density lipoprotein (VLDL), LDL, and HDL plus mouse serum albumin (see FIG. 3) and then extracted and analysed for lipids and antioxidants.
(In general: SEC sorts molecules by how far they enter the pores of the column.)

Setting [5] is: apoE−/− mice, 1% probucol, 24 weeks.

Where two headings read alike, the source gives them in different places.

Take `CC(C)(C)c1cc(-c2cc(C(C)(C)C)c(O)c(C(C)(C)C)c2)cc(C(C)(C)C)c1O` [Bisphenol, bisphenol]: the “circulating concentrations of the drug, pilot experiments” value in data set [1] (chow fortified with bisphenol at 0.03% (w/w)) was roughly 200 µM. Moreover, the concentration at 14 weeks came out at 212 ± 50 µM in data set [1] (Bisphenol [high] aorta pool, read-out: plasma concentration of bisphenol, high group) and 106 ± 40 µM in data set [1] (Bisphenol [low] aorta pool, read-out: plasma concentration of bisphenol, low group).

For `CC(C)(Sc1cc(C(C)(C)C)c(O)c(C(C)(C)C)c1)Sc1cc(C(C)(C)C)c(O)c(C(C)(C)C)c1` [Probucol, probucol], the “drug metabolised to bisphenol or diphenoquinone, aorta” value in data set [2] (aorta) was roughly 11%. The “drug converted into bisphenol or diphenoquinone, plasma” value in data set [2] (plasma) is recorded as roughly 8%. Besides, in data set [3] (setting [5]), the “lesion formation at the abdominal aorta” value is on record as “effectively prevented lesion formation”; the “lesions in the aortic arch and descending thoracic aorta vs control” value is “significantly smaller”. The “lesion cross-section area, Aortic Root” value in data set [3] (apoE−/− mice, high fat diet with 1% (w/w) probucol, 24 weeks, aortic root) is 1180 μm^2 × 10^−3. In addition, in data set [3] (apoE−/− mice, high fat diet with 1% probucol, 24 weeks, abdominal aorta), the “lesion cross-section area, Abdominal Aorta” value is recorded as 12 ± 12(3) μm^2 × 10^−3. In data set [3] (apoE−/− mice, high fat diet with 1% probucol, 24 weeks, aortic arch), the “lesion cross-section area, Arch” value is 140 ± 34 μm^2 × 10^−3. Further, in data set [3] (apoE−/− mice, high fat diet with 1% probucol, 24 weeks, descending thoracic aorta), the “lesion cross-section area, Descending Thoracic Aorta” value is recorded as “*5 ± 4 (8)* μm^2 × 10^−3”. For the same compound, the “Treatment effect on lesion area, Abdominal Aorta” value in data set [3] (probucol vs controls, abdominal aorta) was determined as 10%. In addition, the “Treatment effect on lesion area, Arch” value in data set [3] (probucol vs controls, aortic arch) is 44%. The “Treatment effect on lesion area, Aortic Root” value in data set [3] (probucol vs controls, aortic root) stood at 146%. Further, the “Treatment effect on lesion area, Descending Thoracic Aorta” value in data set [3] (probucol vs controls, descending thoracic aorta) amounted to 15%. Moreover, in data set [4] (HDL fraction, 1% probucol), the “HDL -TOH” value came out at 1.4, the “HDL C” value turned out to be 0.12, the “HDL C18:2” value is 531 and the “HDL C20:4” value worked out at 24.0. Also, the “HDL Total CoQ” value in data set [4] (HDL fraction, 1% probucol) was 0.1. Besides, in data set [4] (LDL fraction, 1% probucol), the “LDL -TOH” value is on record as 7.8, the “LDL C” value was determined as 0.96, the “LDL C18:2” value is 388 and the “LDL C20:4” value turned out to be 50.4. For the same compound, the “LDL Total CoQ” value in data set [4] (LDL fraction, 1% probucol) is reported as 0.4. In addition, in data set [4] (VLDL fraction, 1% probucol), the “VLDL -TOH” value turned out to be 0.56, the “VLDL C18:2” value is 340, the “VLDL C20:4” value worked out at 17.5 and the “VLDL Total CoQ” value was 0.1. Also, in data set [4] (VLDL fraction, pooled plasma, 1% w/w probucol), the “VLDL C” value amounted to 0.65. For the same compound, the “content of C in VLDL, % of the control value” in data set [4] (VLDL of pooled plasma, 1% probucol) was determined as 25%.
